Reference: ChEMBL document CHEMBL1142922, “Amphipathic benzoic acid derivatives: synthesis and binding in the hydrophobic tunnel of the zinc deacetylase LpxC” (Bioorg Med Chem, 2007)
Active and inactive are the calls of the source. The calls are words filed in the database; no cut-off is given here.

Tests used:
[1] = molecular target: T1, UDP-3-O-acyl-N-acetylglucosamine deacetylase (Aquifex aeolicus (strain VF5), UniProt O67648); assay: (§1) Binding affinity to Aquifex aeolicus LpxC by isothermal titration calorimetry
T1 sequence (O67648 whole entry): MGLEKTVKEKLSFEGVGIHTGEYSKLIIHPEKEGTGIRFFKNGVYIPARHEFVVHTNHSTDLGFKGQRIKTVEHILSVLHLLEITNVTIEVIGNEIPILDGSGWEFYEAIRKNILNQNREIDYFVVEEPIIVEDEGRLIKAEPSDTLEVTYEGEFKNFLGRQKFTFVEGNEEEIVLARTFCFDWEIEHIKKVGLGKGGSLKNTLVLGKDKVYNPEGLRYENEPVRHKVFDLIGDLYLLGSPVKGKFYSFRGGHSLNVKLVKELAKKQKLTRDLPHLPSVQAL

[2] = molecular target: T2, UDP-3-O-acyl-N-acetylglucosamine deacetylase (Aquifex aeolicus (strain VF5)) (UniProt O67648); assay: as §1
T2 sequence (whole entry): T1 sequence (O67648 whole entry)

Activity [2]	SMILES	Kd [1]
–	CCCCCCCOc1ccc(CC(=O)O)cc1	2.6 µM
–	CCCCCCCOc1ccc(C(=O)O)cc1O	9 µM
–	CCCCCCCOc1ccc(C(=O)O)cc1[N+](=O)[O-]	6.4 µM
–	CCCCCCCOc1ccc(C(=O)O)cc1OC	8.6 µM
–	CCCCCCCOc1ccc(C(=O)O)cc1Cl	30 µM
–	CCCCCC/C=C/c1ccc(C(=O)O)cc1	6.2 µM
–	CCCCCCCc1ccc(C(=O)O)cc1	35 µM
inactive	COc1ccc(C(=O)O)cc1	–
–	CCCCCCCOc1ccc(C(=O)O)cc1	2.3 µM
inactive	CCCc1ccc(-c2ccc(C(=O)O)cc2)cc1	–
